The values below come from patent US10278984B2, “Guanosine as an immune potentiator mediated through toll receptors” (Nitor Therapeutics, priority 2014, dated 2019).

SMILES strings stand for the structures.

For one test, the target named is T1, human TLR4 (Homo sapiens, UniProt O00206+Q9Y6Y9).
T1 construct: expressed in transfected cells; host or cells: HEK293
The test can be described thus: TLR ligand screening: NF-κB SEAP reporter, agonist. It counts as cell-based. The note with it: HEK293 cells expressing TLR4; guanosine 100 uM, NTR001 10 uM, inosine 100 uM; triplicate. Here is the method:
(§1) Method: TLR stimulation is tested by assessing NF-κB activation in HEK293 cells expressing a given TLR. The Secreted Embryonic Alkaline Phosphatase (SEAP) reporter is under the control of a promoter inducible by the transcription factor NF-κB. This reporter gene allows the monitoring of signaling through the TLR based on the activation of NF-κB. The activity of the compounds is tested on seven different human TLRs (TLR2, 3, 4, 5, 7, 8 and 9) as a potential agonist. The compounds are evaluated at one concentration and compared to control ligands. This step is performed in triplicate.

In a further test the target is T2, human TLR2 (Homo sapiens, UniProt O60603).
T2 construct: expressed in transfected cells; host or cells: HEK293
T2 sequence (O60603 21-784): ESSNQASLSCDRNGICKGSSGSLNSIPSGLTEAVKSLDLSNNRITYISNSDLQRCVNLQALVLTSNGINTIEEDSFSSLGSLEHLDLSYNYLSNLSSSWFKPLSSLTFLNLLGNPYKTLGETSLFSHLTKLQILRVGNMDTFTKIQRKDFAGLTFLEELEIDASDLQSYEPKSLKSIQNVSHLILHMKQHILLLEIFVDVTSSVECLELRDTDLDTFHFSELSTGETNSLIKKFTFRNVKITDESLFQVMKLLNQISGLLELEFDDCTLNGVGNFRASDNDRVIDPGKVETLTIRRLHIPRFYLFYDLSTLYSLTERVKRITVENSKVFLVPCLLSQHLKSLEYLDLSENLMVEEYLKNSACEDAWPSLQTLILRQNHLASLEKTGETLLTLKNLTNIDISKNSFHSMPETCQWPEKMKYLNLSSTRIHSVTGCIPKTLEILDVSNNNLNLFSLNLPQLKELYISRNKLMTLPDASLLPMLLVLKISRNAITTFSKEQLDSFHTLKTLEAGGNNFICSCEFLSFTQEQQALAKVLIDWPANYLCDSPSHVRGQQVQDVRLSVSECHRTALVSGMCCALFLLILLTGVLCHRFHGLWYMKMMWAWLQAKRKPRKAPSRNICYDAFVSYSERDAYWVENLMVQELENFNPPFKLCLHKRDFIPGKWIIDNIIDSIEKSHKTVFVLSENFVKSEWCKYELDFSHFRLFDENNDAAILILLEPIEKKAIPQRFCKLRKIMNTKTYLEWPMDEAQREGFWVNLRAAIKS
The test can be described thus: TLR ligand screening: NF-κB SEAP reporter, agonist. It counts as cell-based. Conditions: HEK293 cells expressing TLR2; guanosine 100 uM, NTR001 10 uM, inosine 100 uM; triplicate. Here is the method: as §1

The next test has as its target T3, human TLR9 (Homo sapiens, UniProt Q9NR96).
T3 construct: expressed in transfected cells; host or cells: HEK293
T3 sequence (Q9NR96 26-1032): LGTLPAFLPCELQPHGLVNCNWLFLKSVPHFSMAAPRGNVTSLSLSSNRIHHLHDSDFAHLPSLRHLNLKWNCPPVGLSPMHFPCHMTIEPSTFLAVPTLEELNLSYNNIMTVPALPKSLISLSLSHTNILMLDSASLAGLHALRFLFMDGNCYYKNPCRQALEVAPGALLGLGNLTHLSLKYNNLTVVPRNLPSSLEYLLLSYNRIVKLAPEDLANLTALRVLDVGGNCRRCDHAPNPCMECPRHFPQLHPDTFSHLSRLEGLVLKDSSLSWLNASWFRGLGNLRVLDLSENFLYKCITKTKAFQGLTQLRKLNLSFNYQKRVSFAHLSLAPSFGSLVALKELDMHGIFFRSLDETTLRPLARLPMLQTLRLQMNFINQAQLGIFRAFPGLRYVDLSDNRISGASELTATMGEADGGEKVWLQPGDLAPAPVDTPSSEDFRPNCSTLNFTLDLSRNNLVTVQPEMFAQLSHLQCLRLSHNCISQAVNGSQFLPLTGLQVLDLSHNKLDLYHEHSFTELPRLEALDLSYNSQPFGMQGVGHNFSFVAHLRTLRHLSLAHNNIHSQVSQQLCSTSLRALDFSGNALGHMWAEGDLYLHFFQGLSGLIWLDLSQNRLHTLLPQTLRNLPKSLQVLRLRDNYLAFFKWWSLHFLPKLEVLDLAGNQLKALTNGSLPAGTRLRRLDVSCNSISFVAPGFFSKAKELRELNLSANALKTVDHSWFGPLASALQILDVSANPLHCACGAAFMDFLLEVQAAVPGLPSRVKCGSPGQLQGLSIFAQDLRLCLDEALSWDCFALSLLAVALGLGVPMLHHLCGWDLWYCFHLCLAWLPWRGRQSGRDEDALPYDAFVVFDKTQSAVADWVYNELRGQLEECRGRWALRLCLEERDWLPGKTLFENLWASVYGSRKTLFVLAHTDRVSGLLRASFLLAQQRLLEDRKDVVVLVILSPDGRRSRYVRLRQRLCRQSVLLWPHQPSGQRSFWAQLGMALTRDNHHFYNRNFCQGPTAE
The test can be described thus: TLR ligand screening: NF-κB SEAP reporter, agonist. The note with it: HEK293 cells expressing TLR9; NTR001 10 uM, inosine 100 uM. It counts as cell-based. Here is the method:
as §1

Another test deals with T4, human TLR8 (Homo sapiens, UniProt Q9NR97).
T4 construct: expressed in transfected cells; host or cells: HEK293
T4 sequence (Q9NR97 27-1041): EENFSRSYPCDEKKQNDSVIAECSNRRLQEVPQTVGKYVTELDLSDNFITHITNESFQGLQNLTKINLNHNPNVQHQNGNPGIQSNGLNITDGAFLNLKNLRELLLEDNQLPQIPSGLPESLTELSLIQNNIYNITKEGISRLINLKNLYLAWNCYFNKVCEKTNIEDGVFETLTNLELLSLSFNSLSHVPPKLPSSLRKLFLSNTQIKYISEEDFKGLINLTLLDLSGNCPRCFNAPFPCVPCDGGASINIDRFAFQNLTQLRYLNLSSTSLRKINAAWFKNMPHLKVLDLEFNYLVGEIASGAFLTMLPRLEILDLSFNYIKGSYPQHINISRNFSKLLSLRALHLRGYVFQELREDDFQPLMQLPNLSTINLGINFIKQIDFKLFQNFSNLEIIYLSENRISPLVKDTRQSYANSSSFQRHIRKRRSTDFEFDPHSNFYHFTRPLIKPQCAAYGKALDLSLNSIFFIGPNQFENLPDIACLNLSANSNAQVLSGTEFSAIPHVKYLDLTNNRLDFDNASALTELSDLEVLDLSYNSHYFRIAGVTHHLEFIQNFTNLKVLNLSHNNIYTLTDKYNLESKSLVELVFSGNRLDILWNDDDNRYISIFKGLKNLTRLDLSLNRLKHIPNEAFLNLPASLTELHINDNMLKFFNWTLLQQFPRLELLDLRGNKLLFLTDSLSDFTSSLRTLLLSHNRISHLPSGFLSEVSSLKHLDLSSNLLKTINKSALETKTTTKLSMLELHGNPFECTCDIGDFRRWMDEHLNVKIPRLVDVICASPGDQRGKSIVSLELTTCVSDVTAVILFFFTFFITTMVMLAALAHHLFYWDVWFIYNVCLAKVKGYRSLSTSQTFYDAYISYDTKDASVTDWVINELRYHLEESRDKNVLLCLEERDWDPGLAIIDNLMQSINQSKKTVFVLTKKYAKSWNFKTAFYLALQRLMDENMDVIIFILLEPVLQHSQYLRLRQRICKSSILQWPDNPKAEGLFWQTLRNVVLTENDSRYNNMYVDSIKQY
The experiment in a line: TLR ligand screening: NF-κB SEAP reporter, agonist. It counts as cell-based. The note with it: HEK293 cells expressing TLR8; NTR001 10 uM, inosine 100 uM. Here is the method:
as §1

The target of another test is T5, human TLR5 (Homo sapiens, UniProt O60602).
T5 construct: expressed in transfected cells; host or cells: HEK293
T5 sequence (O60602 21-858): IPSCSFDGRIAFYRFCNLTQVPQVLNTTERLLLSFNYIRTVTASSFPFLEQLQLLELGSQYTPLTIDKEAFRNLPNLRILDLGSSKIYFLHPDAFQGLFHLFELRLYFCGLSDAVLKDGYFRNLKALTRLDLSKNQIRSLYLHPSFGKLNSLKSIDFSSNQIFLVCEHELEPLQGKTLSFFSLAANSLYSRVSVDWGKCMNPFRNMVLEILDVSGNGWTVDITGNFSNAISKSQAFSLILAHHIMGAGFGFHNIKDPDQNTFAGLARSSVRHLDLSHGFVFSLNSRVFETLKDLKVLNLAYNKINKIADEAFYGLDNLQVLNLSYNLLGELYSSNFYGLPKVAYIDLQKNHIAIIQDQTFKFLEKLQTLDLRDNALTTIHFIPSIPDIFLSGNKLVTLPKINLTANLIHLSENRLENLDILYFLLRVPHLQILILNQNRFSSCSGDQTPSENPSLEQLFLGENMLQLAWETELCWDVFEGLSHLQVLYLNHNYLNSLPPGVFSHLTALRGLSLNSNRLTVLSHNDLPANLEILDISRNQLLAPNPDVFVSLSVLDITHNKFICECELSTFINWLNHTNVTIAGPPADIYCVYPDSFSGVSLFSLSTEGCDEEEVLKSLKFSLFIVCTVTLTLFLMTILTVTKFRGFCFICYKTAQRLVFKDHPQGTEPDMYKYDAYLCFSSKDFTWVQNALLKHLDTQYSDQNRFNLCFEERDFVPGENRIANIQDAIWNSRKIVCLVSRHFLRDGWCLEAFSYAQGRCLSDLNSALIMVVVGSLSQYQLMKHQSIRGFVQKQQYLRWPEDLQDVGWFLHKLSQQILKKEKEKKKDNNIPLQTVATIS
The experiment in a line: TLR ligand screening: NF-κB SEAP reporter, agonist. Format: cell-based. The note with it: HEK293 cells expressing TLR5; NTR001 10 uM, inosine 100 uM. Here is the method: as §1

The target in another test is T6, human TLR7 (Homo sapiens, UniProt Q9NYK1).
T6 construct: expressed in transfected cells; host or cells: HEK293
T6 sequence (Q9NYK1 27-1049): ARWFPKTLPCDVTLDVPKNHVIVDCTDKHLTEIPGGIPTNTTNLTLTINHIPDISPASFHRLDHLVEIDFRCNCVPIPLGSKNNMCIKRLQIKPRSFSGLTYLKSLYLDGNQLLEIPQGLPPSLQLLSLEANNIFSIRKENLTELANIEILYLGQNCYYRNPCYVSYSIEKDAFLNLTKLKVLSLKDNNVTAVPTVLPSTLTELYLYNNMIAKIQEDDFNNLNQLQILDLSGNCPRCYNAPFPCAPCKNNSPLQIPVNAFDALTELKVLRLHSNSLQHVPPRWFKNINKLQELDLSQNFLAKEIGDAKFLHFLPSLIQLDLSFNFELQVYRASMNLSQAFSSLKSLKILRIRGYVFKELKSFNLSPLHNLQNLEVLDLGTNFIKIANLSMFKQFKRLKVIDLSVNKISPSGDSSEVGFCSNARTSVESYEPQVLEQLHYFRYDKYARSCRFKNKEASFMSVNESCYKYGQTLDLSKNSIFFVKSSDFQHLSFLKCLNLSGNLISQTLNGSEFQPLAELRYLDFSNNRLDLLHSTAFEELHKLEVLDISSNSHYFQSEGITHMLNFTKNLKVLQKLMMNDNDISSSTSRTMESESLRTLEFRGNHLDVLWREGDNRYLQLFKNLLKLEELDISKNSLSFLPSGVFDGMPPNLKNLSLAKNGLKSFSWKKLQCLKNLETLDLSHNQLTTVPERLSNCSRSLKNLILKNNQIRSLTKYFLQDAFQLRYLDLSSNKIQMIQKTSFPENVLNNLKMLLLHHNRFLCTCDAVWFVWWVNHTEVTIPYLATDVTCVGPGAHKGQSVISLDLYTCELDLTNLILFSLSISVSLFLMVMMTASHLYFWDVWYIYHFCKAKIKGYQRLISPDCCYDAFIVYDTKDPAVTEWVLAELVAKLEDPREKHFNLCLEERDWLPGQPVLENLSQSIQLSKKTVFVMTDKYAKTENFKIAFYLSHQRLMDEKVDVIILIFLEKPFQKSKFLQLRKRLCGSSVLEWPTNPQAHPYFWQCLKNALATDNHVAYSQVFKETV
The experiment in a line: TLR ligand screening: NF-κB SEAP reporter, agonist. It counts as cell-based. The note with it: HEK293 cells expressing TLR7; NTR001 10 uM, inosine 100 uM. Here is the method:
as §1

For another test, the target named is T7, human TLR3 (Homo sapiens, UniProt O15455).
T7 construct: expressed in transfected cells; host or cells: HEK293
T7 sequence (O15455 24-904): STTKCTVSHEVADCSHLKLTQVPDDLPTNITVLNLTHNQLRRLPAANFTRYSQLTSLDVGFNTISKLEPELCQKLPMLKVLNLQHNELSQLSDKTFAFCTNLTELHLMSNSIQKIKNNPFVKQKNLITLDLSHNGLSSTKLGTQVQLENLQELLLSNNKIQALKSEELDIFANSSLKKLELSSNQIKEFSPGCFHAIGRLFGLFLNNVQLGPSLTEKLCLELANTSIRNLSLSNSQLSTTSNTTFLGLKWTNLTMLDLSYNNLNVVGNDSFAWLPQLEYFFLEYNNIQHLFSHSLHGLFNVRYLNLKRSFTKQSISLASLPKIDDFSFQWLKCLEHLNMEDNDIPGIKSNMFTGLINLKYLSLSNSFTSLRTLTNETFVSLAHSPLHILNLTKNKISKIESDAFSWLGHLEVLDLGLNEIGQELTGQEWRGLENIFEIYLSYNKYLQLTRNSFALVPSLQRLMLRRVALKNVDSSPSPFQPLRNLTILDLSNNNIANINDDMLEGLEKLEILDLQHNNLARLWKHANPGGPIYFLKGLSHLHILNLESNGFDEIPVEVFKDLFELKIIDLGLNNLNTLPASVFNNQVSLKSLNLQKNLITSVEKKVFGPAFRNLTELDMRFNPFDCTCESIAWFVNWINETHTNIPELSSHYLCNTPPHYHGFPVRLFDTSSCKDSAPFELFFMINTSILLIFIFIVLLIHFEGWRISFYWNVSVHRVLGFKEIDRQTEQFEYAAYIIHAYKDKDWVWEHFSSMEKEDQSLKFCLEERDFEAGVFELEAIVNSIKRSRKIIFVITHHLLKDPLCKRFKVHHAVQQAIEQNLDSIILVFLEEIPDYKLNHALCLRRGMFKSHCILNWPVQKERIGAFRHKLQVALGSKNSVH
The test can be described thus: TLR ligand screening: NF-κB SEAP reporter, agonist. Format: cell-based. Conditions: HEK293 cells expressing TLR3; NTR001 10 uM, inosine 100 uM. Here is the method: as §1

The test system of a further test is B16 tumors. The experiment in a line: Mouse melanoma model, NTR001 and cyclophosphamide. Format: in vivo, C57BL/6 mice. The note with it: cyclophosphamide 100 mg/kg IP single dose. Here is the method:
Method: Cancer cells were injected subcutaneously in right flank of each mouse, 1×10^4 cells in 0.1 ml PBS with 20% Matrigel. Treatment with the NTR001 was initiated on day 6 after injection of tumor cells. Tumor volume and survival were recorded every 3-4 days.

T1 sequence (O00206 24-839): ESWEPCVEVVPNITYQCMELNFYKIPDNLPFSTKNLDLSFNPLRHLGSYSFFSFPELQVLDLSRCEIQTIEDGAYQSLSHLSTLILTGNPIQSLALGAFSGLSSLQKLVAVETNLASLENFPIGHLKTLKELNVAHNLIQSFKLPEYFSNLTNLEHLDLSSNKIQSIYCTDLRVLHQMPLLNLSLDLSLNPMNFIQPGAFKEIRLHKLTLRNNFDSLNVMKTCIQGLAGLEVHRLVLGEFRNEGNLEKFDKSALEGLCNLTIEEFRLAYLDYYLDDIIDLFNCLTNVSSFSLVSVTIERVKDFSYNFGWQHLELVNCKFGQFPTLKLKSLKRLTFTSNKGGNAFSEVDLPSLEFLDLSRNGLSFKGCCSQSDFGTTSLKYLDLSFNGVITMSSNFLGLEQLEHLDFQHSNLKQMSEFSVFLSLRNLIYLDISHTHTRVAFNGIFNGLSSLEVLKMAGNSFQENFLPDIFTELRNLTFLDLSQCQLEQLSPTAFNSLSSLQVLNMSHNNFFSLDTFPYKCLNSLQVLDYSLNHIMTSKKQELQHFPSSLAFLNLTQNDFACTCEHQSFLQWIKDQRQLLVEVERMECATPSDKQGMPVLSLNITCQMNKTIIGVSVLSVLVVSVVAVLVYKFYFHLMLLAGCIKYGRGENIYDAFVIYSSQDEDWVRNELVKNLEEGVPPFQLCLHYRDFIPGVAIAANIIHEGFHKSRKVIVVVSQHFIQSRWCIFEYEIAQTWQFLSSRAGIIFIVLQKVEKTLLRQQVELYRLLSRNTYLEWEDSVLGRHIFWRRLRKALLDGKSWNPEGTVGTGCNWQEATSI
T1 sequence (Q9Y6Y9 17-160 limits assumed): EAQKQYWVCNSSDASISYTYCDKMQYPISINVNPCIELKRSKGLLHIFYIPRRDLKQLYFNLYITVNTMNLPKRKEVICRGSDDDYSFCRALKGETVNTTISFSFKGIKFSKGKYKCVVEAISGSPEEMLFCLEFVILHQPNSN

On to `Nc1nc2c(ncn2[C@@H]2O[C@H](CO)[C@@H](O)[C@H]2O)c(=O)[nH]1` [Guansoine, guanosine], for which, at human TLR4, the “stimulatory effect on human TLR4 (NF-κB activation)” value is listed as “significant stimulatory effect”. On human TLR2, the “stimulatory effect on human TLR2 (NF-κB activation)” value is “significant stimulatory effect”.

`OC[C@H]1O[C@@H](n2cnc3c(O)ncnc32)[C@H](O)[C@@H]1O` [Inosine]: the “stimulatory effect on human TLR4 (NF-κB activation)” value at human TLR4 was “do not directly exhibit a stimulatory effect”. Further, the “stimulatory effect on human TLR9 (NF-κB activation)” value at human TLR9 is “do not directly exhibit a stimulatory effect”. In addition, the “stimulatory effect on human TLR8 (NF-κB activation)” value at human TLR8 is on record as “do not directly exhibit a stimulatory effect”. Also, at human TLR2, the “stimulatory effect on human TLR2 (NF-κB activation)” value is on record as “do not directly exhibit a stimulatory effect”. In addition, the “stimulatory effect on human TLR5 (NF-κB activation)” value at human TLR5 was “do not directly exhibit a stimulatory effect”. For the same compound, the “stimulatory effect on human TLR7 (NF-κB activation)” value at human TLR7 was “do not directly exhibit a stimulatory effect”. In addition, the “stimulatory effect on human TLR3 (NF-κB activation)” value on human TLR3 is on record as “do not directly exhibit a stimulatory effect”.

In the test on B16 tumors, `O=P1(N(CCCl)CCCl)NCCCO1` (stereo not shown) [Cyclcophosphamide, Cyclophosphamide] came in with a survival of 30%.
